Measured values published in patent US20080279957A1, “Immunomodulating compositions from bile” (Lorus Therapeutics Inc., priority 2000, published 2008).
Where “and” joins values, the source holds several entries; their conditions need not be identical. Identical values can stand only once.

What was measured:
Assay type in all cases: cell-based
human PBMN [1] = assay: LPS-induced release of TNF by PBMN, LPS plus composition or fractions (Example 9)
Protocol: In the studies of TNF, whole blood was drawn from 5 healthy subjects into heparinized Vacutainer tubes. Peripheral blood mononuclear cells (PBMNs) were isolated by gradient centrifugation on Ficoll-Hypaque (Pharmacia). The PBMN were washed twice with phosphate buffered saline (PBS), counted and resuspended in RPMI 1640 culture medium (Gibco Labs) at a concentration of 10^6 cells/0.5 ml. These cells were cultured in 24 well, flat-bottomed tissue culture plates (Falcon, Becton, Dickinson). […] The total volume was then made up to 1 ml/well with RPMI. […] The cells were cultured for 2, 6, 24, 48 and 72 hours at 37° C. in a humidified 5% CO2 incubator. At the end of each incubation period, the cells were harvested and cell free culture fluids were obtained by centrifugation at 9000 rpm for 10 minutes. The samples were then stored at −70° C. until ELISA for cytokines was carried out (within 2 weeks).
The effect of different volumes of the compositions of the invention in inhibiting LPS stimulated release of TNF was examined.
This separation technique is used for small polar substances. […] The precipitate and the soluble fraction were separated. Both the precipitate and soluble fraction were taken to dryness by lyophilization. The precipitate and soluble fraction were reconstituted in aqueous solutions and both analyzed by RP-HPLC and tested for TNF-α releasing activity.
In the next series of experiments, the activity of the precipitate and supernatants were evaluated after their separation by C18 RP-HPLC. The precipitate and supernatant were collected as 2 pools from RP-HPLC: 2 to 21 min and 21 to 46 min.

human PBMN [2] = assay: TNF release by PBMN with LPS plus composition in the presence of Polymyxin
Protocol: (§1) In the studies of TNF, whole blood was drawn from 5 healthy subjects into heparinized Vacutainer tubes. Peripheral blood mononuclear cells (PBMNs) were isolated by gradient centrifugation on Ficoll-Hypaque (Pharmacia). The PBMN were washed twice with phosphate buffered saline (PBS), counted and resuspended in RPMI 1640 culture medium (Gibco Labs) at a concentration of 10^6 cells/0.5 ml. These cells were cultured in 24 well, flat-bottomed tissue culture plates (Falcon, Becton, Dickinson). […] The total volume was then made up to 1 ml/well with RPMI. As control, PBS was used instead of composition. The cells were cultured for 2, 6, 24, 48 and 72 hours at 37° C. in a humidified 5% CO2 incubator. At the end of each incubation period, the cells were harvested and cell free culture fluids were obtained by centrifugation at 9000 rpm for 10 minutes. The samples were then stored at −70° C. until ELISA for cytokines was carried out (within 2 weeks).
Polymyxin inhibits the action of endotoxin on leukocytes. […] In the absence of polymyxin, LPS induces 517 pg/ml of TNF-α, whereas in the presence of Polymyxin 11 pg/ml of TNF-α is released.
Initially, the effect of different fractions were examined in the presence of Polymyxin. […] Batch BO213 was 369 and high. […] Therefore, whether the hyperosmolarity of the samples was inhibiting or enhancing TNF-α release was investigated as set out below.

human PBMN [3] = assay: Direct TNF release from PBMN by composition in the absence of LPS (ELISA); conditions: 24 hrs; seven patient samples
Protocol: as §1, with “Peripheral” for “In the studies of TNF, whole blood was drawn from 5 healthy subjects into heparinized Vacutainer tubes. Peripheral”
The direct stimulatory effect of Batch B0203 was tested at different volumes and then at different times.
Batch B0203 stimulated maximum TNF-release at about 100 μl (Table 16). […] Thus, the composition was able to stimulate TNF-release on its own, that is in the absence of LPS and the curves for TNF-release were similar to when the composition and LPS were combined.

human PBMN [4] = assay: LPS-stimulated release of cytokines other than TNF by PBMN, LPS plus composition; conditions: LPS (50 ng/ml) alone
Protocol: as §1
Experiments were performed to determine whether the composition of the invention would impair LPS-stimulated release. […] The effects on the other cytokines IL-6, IL-8, IFN-gamma and GM-CSF were not as marked. However, in no instance did the compositions tested augment the effect of LPS stimulated release of cytokines.

human PBMN [5] = assay: Direct effect of composition on cytokine production by PBMN (IL-1α, IL-1β, IL-6, IL-8, GM-CSF, IFN-γ, IL-4; ELISA); conditions: LPS 1 μg, 24 hrs
[6] = LPS 50 ng, first line printed LPS (1) (Table 31)
[7] = LPS 50 ng, second line printed LPS (1) (Table 31)

Lipopolysaccharide [LPS]
TNF Released (human PBMN [1]; 1X 199 Medium, LPS 10 ng/10 μl, 1 patient): 124 pg/mL
TNF Released (human PBMN [1]; 1X 199 Medium, LPS 50 ng/10 μl, 1 patient): 155 pg/mL
TNF Released (human PBMN [1]; 1X 199 Medium, LPS 100 ng/10 μl, 1 patient): 147 pg/mL
TNF Released (human PBMN [1]; 1X 199 Medium, LPS 200 ng/10 μl, 1 patient): 213 pg/mL
TNF Released (human PBMN [1]; 1X 199 Medium, LPS 1000 ng/10 μl, 1 patient): 404 pg/mL
TNF Released (human PBMN [1]; 1640 RPMI Medium, LPS 50 ng/10 μl, 1 patient): 356 pg/mL
TNF Released (human PBMN [1]; 1640 RPMI Medium, LPS 100 ng/10 μl, 1 patient): 323 pg/mL
TNF Released (human PBMN [1]; 1640 RPMI Medium, LPS 200 ng/10 μl, 1 patient): 455 pg/mL
TNF Released (human PBMN [1]; 1640 RPMI Medium, LPS 1000 ng/10 μl, 1 patient): 558 pg/mL
TNF Released by LPS (50 ng/ml) (human PBMN [1]; 2 hr): 697 pg/mL and 697 ± 94 pg/mL
TNF Released by LPS (50 ng/ml) (human PBMN [1]; 24 hr): 800 ± 222 pg/mL
TNF Released by LPS (50 ng/ml) (human PBMN [1]; 48 hr): 170 ± 149 pg/mL
TNF Released by LPS (50 ng/ml) (human PBMN [1]; 72 hr): 132 ± 147 pg/mL
TNF Released -LPS (human PBMN [1]; LPS 50 ng (Table 29)): 0 pg/mL
TNF Released -LPS (human PBMN [1]; LPS 50 ng (Table 30)): 0 pg/mL
TNF Released −LPS (human PBMN [1]; LPS 50 ng/10 μl (Table 24)): 0 pg/mL
TNF Released -LPS (human PBMN [1]; LPS 50 ng/10 μl (Table 25)): 0 pg/mL
TNF Released -LPS (human PBMN [1]; LPS 50 ng/10 μl (Table 26)): 0 pg/mL
TNF Released Total (human PBMN [1]; LPS 50 ng/10 μl, 1X 199 Medium, 2 patients (Table 26)): 136 ± 38 pg/mL
TNF Released Total (human PBMN [1]; LPS 50 ng/10 μl, 1X 199 Medium, 5 patients (Table 24)): 161 ± 50 pg/mL
TNF Released Total (human PBMN [1]; LPS 50 ng/10 μl, 199 Medium, 2 patients (Table 25)): 194 ± 93 pg/mL
TNF Released Total (human PBMN [1]; LPS 50 ng, 199 Medium, 5 patients (Table 29)): 322 ± 115 pg/mL
TNF Released Total (human PBMN [1]; LPS 50 ng, 199 Medium, 5 patients (Table 30)): 99 ± 43 pg/mL
TNF Released -LPS (human PBMN [1]; [6]): 0 pg/mL
TNF Released Total (human PBMN [1]; [6]): 136 ± 62 pg/mL
TNF Released -LPS (human PBMN [1]; [7]): 0 pg/mL
TNF Released Total (human PBMN [1]; [7]): 81 ± 25 pg/mL
TNF Released (human PBMN [1]; LPS (50 ng/ml) alone, Table 10): 915 ± 763
TNF Released −LPS (human PBMN [1]; absence of Polymyxin, 200 μl, 5 patients (Table 22)): 0 pg/mL
TNF Released Total (human PBMN [1]; absence of Polymyxin, composition and fractions 200 μl, LPS 50 ng/10 μl, 5 patients (Table 22)): 219 pg/mL
TNF Released −LPS (human PBMN [1]; absence of Polymyxin, footnote 200 μl, 3 patients (Table 23)): 0 pg/mL
TNF Released Total (human PBMN [1]; absence of Polymyxin, footnote: composition and fractions 200 μl, LPS 50 ng/10 μl, 3 patients (Table 23)): 195 ± 72 pg/mL
TNF Released −LPS (human PBMN [1]; no additive, LPS 50 ng/10 μl, composition 200 μl (Table 19)): 0 pg/mL
TNF Released Total (human PBMN [1]; no additive, LPS 50 ng/10 μl, composition 200 μl, 3 patients (Table 19)): 517 pg/mL and 517 ± 118 pg/mL
TNF Released Total (human PBMN [2]; Polymyxin 50.000 units/ml, composition and fractions 200 μl, LPS 50 ng/10 μl, 2 patients (Table 21)): 31 ± 31 pg/mL
TNF Released −LPS (human PBMN [2]; Polymyxin 50,000 units/ml, LPS 50 ng/10 μl, composition 200 μl (Table 19)): 0 pg/mL
TNF Released Total (human PBMN [2]; Polymyxin 50,000 units/ml, LPS 50 ng/10 μl, composition 200 μl, 8 patients (Table 19)): 11 pg/mL and 11 ± 7 pg/mL
TNF Released Total (human PBMN [2]; Polymyxin 50,000 units/ml, composition and fractions 200 μl, LPS 50 ng/10 μl, 5 patients (Table 20)): 40 ± 25 pg/mL
TNF Released −LPS (human PBMN [2]; Polymyxin, 200 μl, 2 patients (Table 21)): 0 pg/mL
TNF Released −LPS (human PBMN [2]; Polymyxin, 200 μl, 5 patients (Table 20)): 0 pg/mL
TNF Released (human PBMN [3]): 1501 ± 284 pg/mL
GM-CSF released (human PBMN [4]): 54 ± 65
IFN-γ released (human PBMN [4]): 30 ± 24
IL-6 released (human PBMN [4]): 2320 ± 1081
IL-8 released (human PBMN [4]): 118 ± 62 ng/mL
IL-16 released (human PBMN [4]): 1314 ± 723
IL-1α released (human PBMN [4]; six patients): 129 ± 135
GM-CSF released (human PBMN [5]): 54 ± 20 pg/mL
IFN-γ released (human PBMN [5]): 54 ± 94 pg/mL
IL-1β released (human PBMN [5]): 965 ± 99 pg/mL
IL-4 released (human PBMN [5]): <3.0 pg/mL
IL-6 released (human PBMN [5]): 2016 ± 41 pg/mL
IL-1α released (human PBMN [5]; eight patient samples): 315 ± 117 pg/mL
